Measurements reported in patent US20080200392A1, “Methods for Treating Parkinson's Disease” (priority 2005, published 2008).
No end group written: not given here.

What was measured:
FcγIIa = experiment: Reverse ELISA: inhibition of PAP immune complex binding to FcγIIa coated plates; details: PAP pre-incubated 1 h with peptide, 1 h on FcγIIa coated plates; lower = more inhibition; positive control 1.599
Excerpt: (§1) For this reason, a “reverse ELISA” technique was used to assess binding of the Fc region to ligands that bind to immune complexed IgG Fc. In a reverse ELISA, the enzyme (e.g., HRP) is not covalently conjugated to the Fc portion of the secondary antibody. Rather, a preformed immune complex of peroxidase-rabbit (or mouse) anti-peroxidase IgG (“PAP” complex) is used. […] In these experiments, an Fc CH2-CH3 cleft binding ligand (e.g., purified human C1q) was bound to microwell plates. In the absence of competitor, PAP complexes bound to the immobilized ligand and the reaction between HRP and its substrate produced a signal. This signal was reduced by polypeptides and compounds provided herein that inhibited PAP binding to the immobilized ligand.
(§2) Once the reverse ELISA protocol was established using the C1q assay, the assay was redesigned using FcγIIa, FcγIIb, and FcγIII in place of C1q. Highly purified FcγIIa, FcγIIb and FcγIII were immunoabsorbed onto plastic microwells. After optimizing the FcγR reverse ELISA system, simple competitive inhibition experiments using polypeptides provided herein were conducted to investigate their ability to inhibit binding of immune complexes to purified FcγR.
(§3) Falcon microtiter plates were coated with 1:10 dilutions of highly purified FcγIIa, FcγIIb and FcγIII and incubated for 24 hours. The plates were washed and then blocked with 5×BSA blocking solution (Alpha Diagnostic International, San Antonio, Tex.) for 24 hours. PAP immune complexes were formed as described above. PAP (100 μl) were pre-incubated with 100 μl of peptide for one hour. PAP/peptide mixtures were added to the FcγR coated plates and incubated for one hour. After washing, plates were incubated with ABTS substrate for 15 minutes and read at 405 nm.

FcγIIb = experiment: Reverse ELISA: inhibition of PAP immune complex binding to FcγIIb coated plates; details: PAP pre-incubated 1 h with peptide, 1 h on FcγIIb coated plates; lower = more inhibition; positive control 1.394
Excerpt: as §1, §2, §3

human C1q = experiment: Reverse ELISA: inhibition of PAP immune complex binding to C1q coated plates; details: for OD 405 nm: PAP pre-incubated 1 h with peptide or C1q, 30 min on C1q coated plates, lower OD = more inhibition, positive control 2.355; for inhibition of C1q binding, ranking in words: among the peptides of Table 1
Excerpt: as §1
PAP complexes were formed mixing 2 μl of rabbit anti-peroxidase (Sigma Chemicals, St. Louis, Mo.) with 50 μl of peroxidase (Sigma-Aldrich, St. Louis, Mo.) in 1 ml distilled water. PAP (100 μl) were pre-incubated with 100 μl of peptide for one hour, 100 μl were pre-incubated with 100 μl of peptide or human C1q (Quidel Corp., San Diego, Calif.) for one hour. The C1q/PAP and peptide/PAP mixtures (100 μl) were incubated with C1q coated plates for 30 minutes. After washing, plates were incubated with ATBS (Quidel Corp.) for 15 minutes and read at 405 nm.

FcγIII = experiment: Reverse ELISA: inhibition of PAP immune complex binding to FcγIII coated plates; details: PAP pre-incubated 1 h with peptide, 1 h on FcγIII coated plates; lower = more inhibition; positive control 1.588
Excerpt: as §1, §2, §3

IgG Fc = IgG Fc (Homo sapiens, UniProt P01857); experiment: Alanine substitution effect on binding of SEQ ID NO:16 to IgG Fc; details: alanine substitution of SEQ ID NO:16 Val-13 or Trp-14
Excerpt: The indole ring of Trp-14 in SEQ ID NO:16 has a hydrophobic interaction with IgG Fc His-435. SEQ ID NO:16 also has hydrophobic packing with IgG Fc Met-252, Ile-253, Ser-254, His-435, and Tyr-436. Alanine substitution of IgG Fc Asn-434, His-435, or Tyr-436 disrupts binding (ΔΔG≧1.5 kcal/mol). Similarly, alanine substitution of SEQ ID NO:16 Val-13 or Trp-14 results in disruption of binding (ΔΔG≧2.0 kcal/mol).

FcR = experiment: FcγR reverse ELISA, overall statement on FcR binding to PAP; details: among the peptides of Table 2
Protocol: as §2, §3

human wt α-synuclein = experiment: Reverse ELISA: inhibition of immune complexed IgG (PAP) binding to wt α-synuclein; details: for Wt α-synuclein (read at 405 nm): PAP pre-incubated 1 h with peptide
Protocol: PAP complexes were formed mixing 2 μl of rabbit anti-peroxidase (Sigma) with 50 μl of peroxidase (Sigma) in 1 ml distilled water. PAP (100 μl) were pre-incubated with 100 μl of peptide for one hour. Control PAP (200 μl) also was incubated for one hour. 100 μl of either PAP or PAP/peptide was added to Falcon microtiter plates that had been coated for 24 or 48 hours with 167 μg/ml human wt α-synuclein (Sigma-Aldrich), and the plates were incubated for 60 minutes. After washing, plates were incubated with ATBS for 30 minutes and then read at 405 nm.

highly purified FcγIIa = experiment: reverse ELISA: PAP without competitor on FcγIIa-coated plate
[1] = molecular target: human wt α-synuclein (Sigma-Aldrich) (human) (UniProt P37840); experiment: reverse ELISA: PAP without competitor on α-synuclein-coated plate (taken as the 24 h coating)
highly purified FcγIIb = experiment: reverse ELISA: PAP without competitor on FcγIIb-coated plate
highly purified FcγIII = experiment: reverse ELISA: PAP without competitor on FcγIII-coated plate
[2] = molecular target: preformed immune complex of peroxidase-rabbit anti-peroxidase IgG (PAP complex) (rabbit; horseradish) (UniProt P00433); experiment: reverse ELISA competition: PAP pre-incubated with peptide, then on C1q-coated plate; signal is PAP bound to C1q (competitor: immobilized human C1q)
[3] = molecular target: preformed immune complex of peroxidase-rabbit anti-peroxidase IgG (PAP complex) (rabbit; horseradish) (UniProt P00433); experiment: reverse ELISA competition: PAP pre-incubated with peptide, then on FcγIIa-coated plate (competitor: immobilized FcγIIa)
[4] = molecular target: preformed immune complex of peroxidase-rabbit anti-peroxidase IgG (PAP complex) (rabbit; horseradish) (UniProt P00433); experiment: reverse ELISA competition: PAP pre-incubated with peptide, then on FcγIIb-coated plate (competitor: immobilized FcγIIb)
[5] = molecular target: preformed immune complex of peroxidase-rabbit anti-peroxidase IgG (PAP complex) (rabbit; horseradish) (UniProt P00433); experiment: reverse ELISA competition: PAP pre-incubated with peptide, then on FcγIII-coated plate (competitor: immobilized FcγIII)
[6] = molecular target: preformed immune complex of peroxidase-rabbit anti-peroxidase IgG (PAP complex) (rabbit; horseradish) (UniProt P00433); experiment: reverse ELISA competition: PAP pre-incubated with peptide, then on plate coated 48 h with human wt α-synuclein (competitor: immobilized α-synuclein)
[7] = molecular target: preformed immune complex of peroxidase-rabbit anti-peroxidase IgG (PAP complex) (rabbit; horseradish) (UniProt P00433); experiment: reverse ELISA competition: PAP pre-incubated with peptide, then on plate coated 24 h with human wt α-synuclein (competitor: immobilized α-synuclein)
[8] = plates coated 24 h with 167 μg/ml α-synuclein, positive control 1.433
[9] = plates coated 48 h with 167 μg/ml α-synuclein, positive control […]

Sequence of preformed immune complex of peroxidase-rabbit anti-peroxidase IgG (PAP complex) (rabbit; horseradish) (P00433 31-338, one chain of several): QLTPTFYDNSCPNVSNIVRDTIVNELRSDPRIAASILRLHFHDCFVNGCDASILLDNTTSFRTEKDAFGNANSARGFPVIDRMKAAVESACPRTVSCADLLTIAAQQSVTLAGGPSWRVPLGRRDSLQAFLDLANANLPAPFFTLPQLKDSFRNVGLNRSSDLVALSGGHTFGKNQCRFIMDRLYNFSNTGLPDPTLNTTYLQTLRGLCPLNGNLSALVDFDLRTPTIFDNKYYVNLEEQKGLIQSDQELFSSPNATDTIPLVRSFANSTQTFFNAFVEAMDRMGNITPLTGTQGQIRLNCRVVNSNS
Sequence of preformed immune complex of peroxidase-rabbit anti-peroxidase IgG (PAP complex) (P00433 31-338, one chain of several): as above
Sequence of highly purified FcγIIa (P12318 34-317): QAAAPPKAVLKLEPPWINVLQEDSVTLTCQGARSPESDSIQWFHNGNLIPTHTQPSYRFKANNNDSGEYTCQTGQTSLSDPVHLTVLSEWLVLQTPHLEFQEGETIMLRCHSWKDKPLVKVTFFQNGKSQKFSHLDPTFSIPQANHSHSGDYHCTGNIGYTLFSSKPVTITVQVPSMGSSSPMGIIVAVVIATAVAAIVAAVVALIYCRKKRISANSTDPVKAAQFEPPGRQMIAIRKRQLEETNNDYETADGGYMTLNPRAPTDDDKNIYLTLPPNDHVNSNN

Row | Molecule | FcγIIa (read at 405 nm) (FcγIIa) | FcγIIb (read at 405 nm) (FcγIIb) | OD 405 nm (human C1q) | FcγIII (read at 405 nm) (FcγIII) | OD 405 nm [2] | OD 405 nm [3] | OD 405 nm [4] | OD 405 nm [5] | other results
1 | APPCAFHLGELVWCT (not fully specified; cysteine pairing not given here) | 0.605 | 0.380 | 0.983 | 0.880 | – | – | – | – | –
2 | APPCARHLGELVWCT | 0.956 | 0.768 | 0.567 | 0.709 | – | – | – | – | inhibition of C1q binding, ranking in words (human C1q): next best result
3 | APPCAWHLGELVWCT | 0.658 | 0.562 | 1.148 | 0.530 | – | – | – | – | –
4 | APPDCAWHLGELVWCT | 0.509 | 0.496 | 0.389 | 0.670 | – | – | – | – | ΔΔG, disruption of binding (IgG Fc): ≥ 2.0 kcal/mol; inhibition of FcR binding to PAP, ranking in words (FcR): greatest inhibition of FcR binding to PAP; inhibition of α-synuclein binding to PAP, ranking in words (human wt α-synuclein; among the peptides of Table 3): greatest inhibition of α-synuclein binding to PAP; Wt α-synuclein (read at 405 nm) (human wt α-synuclein; [8]): 0.088; Wt α-synuclein (read at 405 nm) (human wt α-synuclein; [9]): 0.136; inhibition of C1q binding, ranking in words (human C1q): greatest inhibition of C1q binding, almost equaling C1q itself
5 | DCAFHLGELVWCT | 0.660 | 0.510 | 0.859 | 0.810 | – | – | – | – | –
6 | DCAWHLGELVWCT | 0.561 | 0.532 | 1.100 | 0.741 | – | – | – | – | Wt α-synuclein (read at 405 nm) (human wt α-synuclein; [8]): 0.111; Wt α-synuclein (read at 405 nm) (human wt α-synuclein; [9]): 0.152
7 | preformed immune complex of peroxidase-rabbit anti-peroxidase IgG (PAP complex) (from UniProt P00433 31-338) (antibody) | – | – | – | – | – | – | – | – | OD 405 nm (highly purified FcγIIa): 1.6 OD 405 nm; OD 405 nm [1]: 1.43 OD 405 nm; OD 405 nm (highly purified FcγIIb): 1.39 OD 405 nm; OD 405 nm (highly purified FcγIII): 1.59 OD 405 nm
8 | APPCAFHLGELVWCT (not fully specified; cysteine pairing not given here) [… (SEQ ID NO:15)] | – | – | – | – | 0.983 OD 405 nm | 0.605 OD 405 nm | 0.38 OD 405 nm | 0.88 OD 405 nm | –
9 | APPCARHLGELVWCT (not fully specified; cysteine pairing not given here) [… (SEQ ID NO:14)] | – | – | – | – | 0.567 OD 405 nm | 0.956 OD 405 nm | 0.768 OD 405 nm | 0.709 OD 405 nm | –
10 | APPCAWHLGELVWCT (not fully specified; cysteine pairing not given here) [… (SEQ ID NO:13)] | – | – | – | – | 1.15 OD 405 nm | 0.658 OD 405 nm | 0.562 OD 405 nm | 0.53 OD 405 nm | –
11 | DCAFHLGELVWCT [… (SEQ ID NO:3)] | – | – | – | – | 0.859 OD 405 nm | 0.66 OD 405 nm | 0.51 OD 405 nm | 0.81 OD 405 nm | –
12 | APPDCAWHLGELVWCT [… (SEQ ID NO:16)] | – | – | – | – | 0.389 OD 405 nm | 0.509 OD 405 nm | 0.496 OD 405 nm | 0.67 OD 405 nm | OD 405 nm [6]: 0.136 OD 405 nm; OD 405 nm [7]: 0.088 OD 405 nm
